How the values were obtained:
A2058 cells = assay: Proliferation inhibition, CellTiter-Glo, A2058; assay type: cell-based, human; details: Table D-1; A2058 (BRAF V600E), 3 days; read-out: Prolif. (proliferation EC50)
Method: (§1) All cancer cell lines (A375, A101D, A2058, RKO, HT29 SK-MEL 30, IPC298, HepG2, HCT-116, Lovo, SW620, SW480, NCI-H358, NCI-H2122, Calu-6, NCIH2087, NCIH1755, NCIH1666 and Mewo) were obtained from ATCC and cultured in RPM1-1640 medium (Gibco) supplemented with 5% heat inactivated fetal bovine serum (FBS, Wisent) at 37° C. under 5% CO2. Cells were maintained in T175 flasks (Greiner). They were passaged by removing the culture medium, washing once in 10 mL of room temperature Phosphate Buffered Saline (PBS; Wisent) and incubating at 37° C. with 2 mL of 0.05% Trypsin (Thermo-Fisher). […]
(§2) After 3 days of incubation, the growth media were removed by aspiration and 60 μL of diluted CellTiter-Glo® reagent (10 μL CellTiter-Glo® reagent+50 μL of PBS) was added to each well. […] Luminescence signals were then acquired on a Synergy Neo2 plate reader (Biotek).
(§3) The effect of each compound dilution on the proliferation of cancer cell lines was expressed in % inhibition and calculated as follows. […]
(§4) The ability of each compound to inhibit proliferation was expressed as a EC50 value obtained by plotting the effect values for each data point of a dilution series and fitting the obtained curves using a log(agonist) versus response—variable slope (four parameters) function using GraphPadPrism (V7.0) or Dotmatics Screening Ultra platform.

A101D cells = assay: Proliferation inhibition, CellTiter-Glo, A101D; assay type: cell-based, human; details: Table D-1; A101D (BRAF V600E), 3 days; read-out: Prolif. (proliferation EC50)
Method: as §1, §2, §3, §4

CRAF = target: T1, CRAF (Homo sapiens, UniProt P04049); assay: CRAF kinase activity assay (ADP-Glo); assay type: biochemical; details: Table 3; 10 μM ATP, kinase-dead MEK1 substrate
T1 construct: fused on or other part: GST tag (N-terminal according to the vendor's product)
T1 sequence (P04049 whole entry Y340E/Y341E, form open, the tested form may be a part): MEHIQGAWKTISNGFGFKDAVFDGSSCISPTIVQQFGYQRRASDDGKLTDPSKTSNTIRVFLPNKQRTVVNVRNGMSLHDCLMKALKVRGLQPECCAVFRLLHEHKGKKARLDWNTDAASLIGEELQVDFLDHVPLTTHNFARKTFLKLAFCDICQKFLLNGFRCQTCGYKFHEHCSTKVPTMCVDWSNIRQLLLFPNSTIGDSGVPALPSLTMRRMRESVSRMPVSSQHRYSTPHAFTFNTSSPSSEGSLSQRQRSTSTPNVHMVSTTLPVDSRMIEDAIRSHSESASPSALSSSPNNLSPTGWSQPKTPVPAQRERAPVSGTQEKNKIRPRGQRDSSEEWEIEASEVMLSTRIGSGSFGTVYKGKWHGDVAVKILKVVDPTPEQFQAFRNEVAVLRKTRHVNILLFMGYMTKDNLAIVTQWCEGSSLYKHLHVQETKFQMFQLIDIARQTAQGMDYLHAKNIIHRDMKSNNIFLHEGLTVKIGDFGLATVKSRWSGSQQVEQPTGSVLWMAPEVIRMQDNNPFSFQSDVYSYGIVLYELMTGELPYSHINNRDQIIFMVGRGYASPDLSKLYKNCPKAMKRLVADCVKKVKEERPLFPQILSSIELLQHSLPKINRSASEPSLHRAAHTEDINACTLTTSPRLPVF
Outline: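 GST-tagged kinase (0.375 nM) with 75 nM kinase-dead MEK1 and 10 μM ATP in HEPES pH 7.5 buffer, 2 h at 30° C, nine concentrations 100–0.01 nM, 0.05% DMSO. ADP-Glo luminescence; % inhibition vs DMSO and substrate-only blanks, IC50 by four-parameter fit.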

SMILES	EC50 (A2058 cells)	EC50 (A101D cells)	IC50 (CRAF)
N#CC1(c2cccc3c2ncn3-c2nc3c(Nc4c(F)ccc(NS(=O)(=O)c5cccc(Cl)c5Cl)c4F)ncnc3s2)CC1 [Example 122]	< 0.3 µM	< 0.3 µM	< 0.01 µM
Cc1c(F)cccc1S(=O)(=O)Nc1ccc(F)c(Nc2ncnc3sc(-n4cc(C(=O)N5C6CCC5CN(C)C6)c5ccccc54)nc23)c1F [Example 44]	< 0.3 µM	< 0.3 µM	< 0.01 µM

From patent publication US20260137697A1, “THIAZOLO[5,4-D]PYRIMIDINE COMPOUNDS, COMPOSITIONS COMPRISING THEM AND USES THEREOF” (University de Montreal, priority 2022, published 2026)
